# According to patent US9988400B2 (Genentech, Inc., priority 2013, dated 2018):
# Target: T1, HEK cells stably transfected with tetracycline inducible hNR1 and hNR2A (Homo sapiens, UniProt Q05586+Q12879)
# T1 construct: expressed in transfected cells; host or cells: HEK cells, stably transfected, tetracycline/doxycycline inducible
# Assay: Assay 1: Cell-Based Assay, cytosolic calcium response to positive allosteric modulators (with 30 μM glycine and 300 nM L-glutamate, EC30)
# Conditions: for Max %: responses scaled relative to 100 μM L-glutamate maximal response (100%) and 0 μM L-glutamate (0%); for EC50: cytosolic calcium response, with 30 μM glycine and 300 nM L-glutamate (EC30), — = no plateau was reached
# Experimental: Assay 1: Cell-Based Assay
# HEK cells stably transfected with tetracycline inducible hNR1 and hNR2A were seeded into clear bottom 384 well poly-D-lysine coated plates (2.5×10^4 cells per well) in Minimum Essential Media (MEM; without L-) including 7.5 μg mL^−1 doxycycline and 500 μM (+)-ketamine. The cells were incubated at 37° C. in 5% CO2 for 24 h. For measurement of changes in cytosolic calcium, the seeding media was removed and the cells incubated at 37° C. for 60 min with 1× Becton Dickinson Calcium Assay Kit reagent in Hanks Balanced Salt Solution (HBSS; w/o magnesium, including 1.8 mM calcium, 0.65 mg ml^−1 probenecid and 10 μM (+)-ketamine, pH 7.15) then allowed to equilibrate to rt for 30 min. Concentration-effect curves to Positive Allosteric Modulators (PAMs) were constructed by adding different concentrations (with 30 μM glycine and 300 nM L-glutamate (EC30)) to different wells in HBSS. Compounds were added after a 10 second baseline read and maximum level of relative fluorescence units (RFU) was measured over a 5 min period. Responses were scaled relative to 100 μM L-glutamate maximal response (100%) and 0 μM L-glutamate (0%). EC50 values are provided for compounds reaching maximal response plateaus, and the max % (EC50 (- -)) only if no plateau was reached.
# A four-parameter Hill equation was fitted to individual concentration-effect curves:
# [formula] in which Y, S0, Sinf, AC50, n and c were effect, lower-asymptote, upper-asymptote, mid-point location, slope parameter, and concentration respectively.
# T1 sequence (Q12879 23-1464, other chains not shown): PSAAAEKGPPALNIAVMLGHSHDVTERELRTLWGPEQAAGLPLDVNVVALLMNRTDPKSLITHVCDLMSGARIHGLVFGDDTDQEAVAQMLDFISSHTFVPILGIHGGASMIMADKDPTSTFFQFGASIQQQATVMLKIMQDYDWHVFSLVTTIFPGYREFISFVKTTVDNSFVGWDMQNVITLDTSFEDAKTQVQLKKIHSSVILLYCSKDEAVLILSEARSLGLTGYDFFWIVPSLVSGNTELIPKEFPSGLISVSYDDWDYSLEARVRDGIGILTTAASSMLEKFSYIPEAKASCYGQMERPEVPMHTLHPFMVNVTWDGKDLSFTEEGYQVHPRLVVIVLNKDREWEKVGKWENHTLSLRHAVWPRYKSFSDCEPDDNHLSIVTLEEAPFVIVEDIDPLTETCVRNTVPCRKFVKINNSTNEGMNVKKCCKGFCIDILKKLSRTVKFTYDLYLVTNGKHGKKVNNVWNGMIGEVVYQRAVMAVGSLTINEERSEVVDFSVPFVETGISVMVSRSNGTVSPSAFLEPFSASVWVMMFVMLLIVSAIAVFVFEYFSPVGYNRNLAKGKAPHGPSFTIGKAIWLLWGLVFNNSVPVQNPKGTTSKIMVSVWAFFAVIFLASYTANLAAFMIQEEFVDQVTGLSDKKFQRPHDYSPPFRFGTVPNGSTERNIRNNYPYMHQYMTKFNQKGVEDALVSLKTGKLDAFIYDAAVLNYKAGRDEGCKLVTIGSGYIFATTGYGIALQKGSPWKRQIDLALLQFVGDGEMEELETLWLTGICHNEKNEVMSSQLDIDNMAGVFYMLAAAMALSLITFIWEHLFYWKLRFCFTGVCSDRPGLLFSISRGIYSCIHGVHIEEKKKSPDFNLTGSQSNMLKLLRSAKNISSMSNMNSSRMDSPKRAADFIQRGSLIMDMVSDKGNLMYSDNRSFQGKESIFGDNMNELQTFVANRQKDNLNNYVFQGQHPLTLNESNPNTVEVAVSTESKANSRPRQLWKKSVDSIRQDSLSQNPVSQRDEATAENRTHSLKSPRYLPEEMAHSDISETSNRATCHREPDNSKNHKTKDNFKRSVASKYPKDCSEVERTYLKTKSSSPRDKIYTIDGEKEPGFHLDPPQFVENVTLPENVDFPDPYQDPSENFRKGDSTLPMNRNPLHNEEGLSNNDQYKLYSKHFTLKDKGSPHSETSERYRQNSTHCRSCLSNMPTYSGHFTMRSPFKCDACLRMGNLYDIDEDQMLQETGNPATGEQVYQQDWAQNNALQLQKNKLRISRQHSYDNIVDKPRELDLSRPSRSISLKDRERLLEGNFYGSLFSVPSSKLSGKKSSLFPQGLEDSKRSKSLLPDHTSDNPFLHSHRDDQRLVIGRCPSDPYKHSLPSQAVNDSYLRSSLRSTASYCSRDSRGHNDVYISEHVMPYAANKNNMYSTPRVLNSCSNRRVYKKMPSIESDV
Max % (Table 2),EC50 (Table 2),EC50 (Table 3),SMILES
59.7%,–,–,"CNC(=O)c1c(C)sc2nc(Cc3ccc(Cl)cc3C)cc(=O)n12 [Example 21.41, 7-(4-chloro-2-methylbenzyl)-N,2-dimethyl-5-oxo-5H-thiazolo[3,2-a]pyrimidine-3-carboxamide]"
–,15.3 µM,–,"Cc1sc2nc(Cc3cccc(C#N)c3F)cc(=O)n2c1C1CC1 [Example 24.4, 3-((3-cyclopropyl-2-methyl-5-oxo-5H-thiazolo[3,2-a]pyrimidin-7-yl)methyl)-2-fluorobenzonitrile]"
134%,5.8 µM,–,"Cc1sc2nc(COc3ccc(F)c(F)c3)cc(=O)n2c1[C@@H]1C[C@H]1CO (relative stereo) [Example 4.7, 7-(3,4-Difluorophenoxymethyl)-3-[trans-2-(hydroxymethyl)cyclopropyl]-2-methyl-5H-[1,3]thiazolo[3,2-a]pyrimidin-5-one]"
–,–,0.995 µM,"CC(=O)c1c(C)sc2nc(Cn3nc(Cl)cc3C(F)(F)F)cc(=O)n12 [compound 120, 3-acetyl-7-[[3-chloro-5-(trifluoromethyl)pyrazol-1-yl]methyl]-2-methyl-thiazolo[3,2-a]pyrimidin-5-one]"
–,–,2.08 µM,"N#CC1CC1c1c(C(F)(F)F)sc2nc(Cc3cccc(C(F)(F)F)c3F)cc(=O)n12 (centres unmarked) [compound 94, 2-[7-[[2-fluoro-3-(trifluoromethyl)phenyl]methyl]-5-oxo-2-(trifluoromethyl)thiazolo[3,2-a]pyrimidin-3-yl]cyclopropanecarbonitrile]"
–,–,2.57 µM,"CNC(=O)c1c(C)sc2nc(Cc3cccc(C(F)F)c3F)c(F)c(=O)n12 [compound 30, 7-[[3-(difluoromethyl)-2-fluoro-phenyl]methyl]-6-fluoro-N,2-dimethyl-5-oxo-thiazolo[3,2-a]pyrimidine-3-carboxamide]"
134%,33.6 µM,–,CCNC(=O)c1c(C)sc2nc(Cc3cc(F)ccc3CC)cc(=O)n12 [Example 21.21]
–,–,5.14 µM,"Cc1sc2nc(Cc3cccc(C(F)(F)F)c3F)cc(=O)n2c1-c1ncc[nH]1 [compound 47, 7-[[2-fluoro-3-(trifluoromethyl)phenyl]methyl]-3-(1H-imidazol-2-yl)-2-methyl-thiazolo[3,2-a]pyrimidin-5-one]"
166%,5 µM,–,"CCN(Cc1cc(=O)n2c(CCC(C)(C)O)c(C)sc2n1)c1ccc(F)cc1 [Example 13.9, 7-[[Ethyl(4-fluorophenyl)amino]methyl]-3-(3-hydroxy-3-methylbutyl)-2-methyl-5H-[1,3]thiazolo[3,2-a]pyrimidin-5-one]"
–,–,2.32 µM,"CCNC(=O)c1c(C(C)=O)sc2nc(Cn3nc(Cl)cc3C(F)(F)F)cc(=O)n12 [compound 238, 2-acetyl-7-[[3-chloro-5-(trifluoromethyl)pyrazol-1-yl]methyl]-N-ethyl-5-oxo-thiazolo[3,2-a]pyrimidine-3-carboxamide]"
136%,6.2 µM,–,"Cc1sc2nc(CN3c4ccc(F)cc4CC3C)cc(=O)n2c1-c1cncnc1 (centres unmarked) [Example 5.48, 7-((5-fluoro-2-methylindolin-1-yl)methyl)-2-methyl-3-(pyrimidin-5-yl)-5H-thiazolo[3,2-a]pyrimidin-5-one]"
–,–,0.501 µM,"Cc1sc2nc(Cn3nc(C(F)(F)F)cc3Cl)cc(=O)n2c1-c1cccnc1 [compound 134, 7-[[5-chloro-3-(trifluoromethyl)pyrazol-1-yl]methyl]-2-methyl-3-(3-pyridyl)thiazolo[3,2-a]pyrimidin-5-one]"
78.7%,31.2 µM,–,"Cc1sc2nc(Cc3ccc(C(F)(F)F)cc3)cc(=O)n2c1C1CC1CO (centres unmarked) [Example 20.11, 3-(2-(hydroxymethyl)cyclopropyl)-2-methyl-7-(4-(trifluoromethyl)benzyl)-5H-thiazolo[3,2-a]pyrimidin-5-one]"
121%,1.3 µM,–,"CCN(Cc1cc(=O)n2c(C#N)c(C)sc2n1)c1cc(F)cc(F)c1 [Example 7.9, 7-(((3,5-difluorophenyl)(ethyl)amino)methyl)-2-methyl-5-oxo-5H-thiazolo[3,2-a]pyrimidine-3-carbonitrile]"
47.4%,26.3 µM,–,"Cc1sc2nc(COc3ccc(F)cc3)cc(=O)n2c1C(N)=O [Example 1.8, 7-((4-fluorophenoxy)methyl)-2-methyl-5-oxo-5H-thiazolo[3,2-a]pyrimidine-3-carboxamide]"
68%,–,–,"CCNC(=O)c1c(C)sc2nc(COc3ccc(F)cn3)cc(=O)n12 [Example 3.6, N-ethyl-7-[[(5-fluoropyridin-2-yl)oxy]methyl]-2-methyl-5-oxo-5H-[1,3]thiazolo[3,2-a]pyrimidine-3-carboxamide]"

Max % (Table 2),EC50 (Table 2),EC50 (Table 3),SMILES
132%,2.7 µM,–,"CCN(Cc1cc(=O)n2c(-c3cncc(Cl)c3)c(C)sc2n1)c1ccc(F)cc1 [Example 5.31, 3-(5-chloro-3-pyridyl)-7-[(N-ethyl-4-fluoro-anilino)methyl]-2-methyl-thiazolo[3,2-a]pyrimidin-5-one]"
87.4%,–,–,"Cc1sc2nc(COc3ccc(F)cc3)cc(=O)n2c1C(=O)C(F)(F)F [Example 2.11, 7-(4-Fluorophenoxymethyl)-2-methyl-3-(trifluoroacetyl)-5H-[1,3]thiazolo[3,2-a]pyrimidin-5-one]"
42.5%,–,–,"CNC(=O)c1c(C)sc2nc(Cc3ccc(F)cc3C(F)(F)F)cc(=O)n12 [Example 21.59, 7-[[4-fluoro-2-(trifluoromethyl)phenyl]methyl]-N,2-dimethyl-5-oxo-thiazolo[3,2-a]pyrimidine-3-carboxamide]"
–,–,7.46 µM,"C=C(C)c1c(C(F)(F)F)sc2nc(Cn3nc(C(F)(F)F)cc3Cl)cc(=O)n12 [compound 169, 7-[[5-chloro-3-(trifluoromethyl)pyrazol-1-yl]methyl]-3-isopropenyl-2-(trifluoromethyl)thiazolo[3,2-a]pyrimidin-5-one]"
71.8%,–,–,"CCNC(=O)c1c(C)sc2nc(Cc3cc(F)ccc3C)cc(=O)n12 [Example 21.36, N-ethyl-7-(5-fluoro-2-methylbenzyl)-2-methyl-5-oxo-5H-thiazolo[3,2-a]pyrimidine-3-carboxamide]"
161%,0.434 µM,–,"CCN(Cc1cc(=O)n2c(CCCO)c(C)sc2n1)c1ccc(F)cc1 [Example 13.1, 7-[(N-ethyl-4-fluoro-anilino)methyl]-3-(3-hydroxypropyl)-2-methyl-thiazolo[3,2-a]pyrimidin-5-one]"
117%,18.6 µM,–,"Cc1sc2nc(Cn3nc(C4CC4)c(F)c3C(F)(F)F)cc(=O)n2c1C1CC1CO (stereo not drawn) [Example 15.9, 7-((3-cyclopropyl-4-fluoro-5-(trifluoromethyl)-1H-pyrazol-1-yl)methyl)-3-(trans-2-(hydroxymethyl)cyclopropyl)-2-methyl-5H-thiazolo[3,2-a]pyrimidin-5-one]"
96.6%,–,–,"CNC(=O)c1c(C)sc2nc(Cc3cccc(C#N)c3)cc(=O)n12 [Example 21.1, 7-(3-cyanobenzyl)-N,2-dimethyl-5-oxo-5H-thiazolo[3,2-a]pyrimidine-3-carboxamide]"
47%,–,–,"CCNC(=O)c1c(C)sc2nc(Cc3cccc(C#N)c3)cc(=O)n12 [Example 21.11, 7-(3-cyanobenzyl)-N-ethyl-2-methyl-5-oxo-5H-thiazolo[3,2-a]pyrimidine-3-carboxamide]"
148%,5.7 µM,–,"Cc1sc2nc(CN(C)c3ccc(F)cc3)cc(=O)n2c1-c1cncnc1 [Example 5.2, 7-(((4-fluorophenyl)(methyl)amino)methyl)-2-methyl-3-(pyrimidin-5-yl)-5H-thiazolo[3,2-a]pyrimidin-5-one]"
133%,18 µM,–,"CCN(Cc1cc(=O)n2c(-c3cncnc3)c(C)sc2n1)c1cccc(C#N)c1 [Example 5.10, 3-(ethyl((2-methyl-5-oxo-3-(pyrimidin-5-yl)-5H-thiazolo [3,2-a]pyrimidin-7-yl)methyl)amino)benzonitrile]"
131%,33.1 µM,–,"CCNC(=O)c1c(C)sc2nc(Cc3cc(C#N)ccc3CCF)cc(=O)n12 [Example 21.61, 7-(5-cyano-2-(2-fluoroethyl)benzyl)-N-ethyl-2-methyl-5-oxo-5H-thiazolo[3,2-a]pyrimidine-3-carboxamide]"
–,–,17.6 µM,"CC1CC1c1c(Cl)sc2nc(Cc3cccc(C(F)(F)F)c3F)cc(=O)n12 (centres unmarked) [compound 121, 2-chloro-7-[[2-fluoro-3-(trifluoromethyl)phenyl]methyl]-3-(2-methylcyclopropyl)thiazolo[3,2-a]pyrimidin-5-one]"
–,9 µM,–,"Cc1sc2nc(Cc3cccc(C(F)(F)F)c3F)cc(=O)n2c1C#N [Example 26.2, 7-(2-fluoro-3-(trifluoromethyl)benzyl)-2-methyl-5-oxo-5H-thiazolo[3,2-a]pyrimidine-3-carbonitrile]"
60.1%,–,–,"CCNC(=O)c1c(C)sc2nc(Cc3cccc(C#N)n3)cc(=O)n12 [Example 21.22, 7-((6-cyanopyridin-2-yl)methyl)-N-ethyl-2-methyl-5-oxo-5H-thiazolo[3,2-a]pyrimidine-3-carboxamide]"
